# Experiments:
# Assay in all cases: relative viability (nuclei count vs DMSO), 5 days (fraction); higher = more cells survive
# PAC-1 + Crizotinib = compound: C=CCc1cccc(/C=N/NC(=O)CN2CCN(Cc3ccccc3)CC2)c1O [PAC-1] + C[C@@H](Oc1cc(-c2cnn(C3CCNCC3)c2)cnc1N)c1c(Cl)ccc(F)c1Cl [Crizotinib] (partner 1 µM)
# Method in brief: (§1)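 Medians of duplicate plates are given as relative viability. That measure is the nuclei count in treated wells divided by the count in vehicle wells. Counts were taken on 4× images of lung cancer cell lines in 1536-well plates, 5 days after pin-tool dosing the day after seeding with one drug alone or a fixed anchor-drug dose plus five library-drug doses (not always all listed) in √10 steps.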
# PAC-1 + Trametinib = compound: C=CCc1cccc(/C=N/NC(=O)CN2CCN(Cc3ccccc3)CC2)c1O [PAC-1] + CC(=O)Nc1cccc(-n2c(=O)n(C3CC3)c(=O)c3c(Nc4ccc(I)cc4F)n(C)c(=O)c(C)c32)c1 [Trametinib] (partner 0.02 µM)
# Method in brief: as §1
# PAC-1 + Palbociclib = compound: C=CCc1cccc(/C=N/NC(=O)CN2CCN(Cc3ccccc3)CC2)c1O [PAC-1] + CC(=O)c1c(C)c2cnc(Nc3ccc(N4CCNCC4)cn3)nc2n(C2CCCC2)c1=O [Palbociclib] (partner 0.5 µM)
# Method in brief: as §1
# PAC-1 + Linsitinib = compound: C=CCc1cccc(/C=N/NC(=O)CN2CCN(Cc3ccccc3)CC2)c1O [PAC-1] + C[C@]1(O)C[C@@H](c2nc(-c3ccc4ccc(-c5ccccc5)nc4c3)c3c(N)nccn32)C1 [Linsitinib] (partner 1 µM)
# Method in brief: as §1
# BMX-IN-1 + Linsitinib = compound: C=CC(=O)Nc1cc(-n2c(=O)ccc3cnc4ccc(-c5ccc(NS(C)(=O)=O)cc5)cc4c32)ccc1C [BMX-IN-1] + C[C@]1(O)C[C@@H](c2nc(-c3ccc4ccc(-c5ccccc5)nc4c3)c3c(N)nccn32)C1 [Linsitinib] (partner 1 µM)
# Method in brief: as §1
Cell Line,relative viability (PAC-1 + Crizotinib; first compound 0.02 µM),relative viability (PAC-1 + Crizotinib; first compound 0.06325 µM),relative viability (PAC-1 + Crizotinib; first compound 0.2 µM),relative viability (PAC-1 + Crizotinib; first compound 2 µM),relative viability (PAC-1 + Trametinib; first compound 0.02 µM),relative viability (PAC-1 + Trametinib; first compound 0.06325 µM),relative viability (PAC-1 + Trametinib; first compound 0.2 µM),relative viability (PAC-1 + Trametinib; first compound 2 µM),relative viability (PAC-1 + Palbociclib; first compound 0.02 µM),relative viability (PAC-1 + Palbociclib; first compound 0.06325 µM),relative viability (PAC-1 + Palbociclib; first compound 0.2 µM),relative viability (PAC-1 + Palbociclib; first compound 2 µM),relative viability (PAC-1 + Linsitinib; first compound 0.02 µM),relative viability (PAC-1 + Linsitinib; first compound 0.06325 µM),relative viability (PAC-1 + Linsitinib; first compound 0.2 µM),relative viability (PAC-1 + Linsitinib; first compound 2 µM),relative viability (BMX-IN-1 + Linsitinib; first compound 0.02 µM),relative viability (BMX-IN-1 + Linsitinib; first compound 0.2 µM),relative viability (BMX-IN-1 + Linsitinib; first compound 0.6325 µM),relative viability (BMX-IN-1 + Linsitinib; first compound 2 µM)
HOP-62,0.844,1.01,1.02,0.954,0.387,0.404,0.388,0.406,0.463,0.437,0.51,0.46,1.01,0.927,0.977,0.939,0.959,1,1.02,0.947
NCI-H727,0.847,0.841,0.898,0.821,0.348,0.394,0.414,0.414,0.516,0.597,0.681,0.714,0.281,0.283,0.272,0.317,0.325,0.393,0.261,0.27
ChaGo-K-1,1.15,1.17,1.09,1.03,0.951,0.917,0.837,0.94,0.914,0.933,0.956,0.954,–,–,–,–,–,–,–,–
BEN,0.92,0.882,0.804,0.832,1.08,1.09,1.17,0.923,0.443,0.489,0.47,0.459,0.934,0.91,0.918,0.873,1.08,1.13,0.995,0.942
NCI-H596,0.974,0.952,0.98,1.07,0.704,0.802,0.801,0.87,–,–,–,–,0.891,0.977,1.08,1.03,1.12,1.21,1.02,0.936
LU99A,0.618,0.581,0.515,0.544,0.542,0.475,0.539,0.564,0.425,0.422,0.461,0.408,0.562,0.514,0.518,0.489,0.547,0.533,0.532,0.535
NCI-H460,0.887,0.805,0.823,1.07,0.136,0.156,0.204,0.286,0.148,0.162,0.129,0.248,0.701,0.81,0.78,0.405,1.04,1.07,1.45,0.777
NCI-H1648,–,–,–,–,0.388,0.525,0.445,0.504,0.299,0.243,0.26,0.228,–,–,–,–,–,–,–,–
HCC-44,0.809,0.797,0.807,0.772,1.05,1.08,1.07,1.02,1.04,0.984,0.965,0.993,0.684,0.68,0.678,0.712,0.804,0.735,0.702,0.642
NCI-H647,1.06,1.12,1.03,0.812,0.456,0.535,0.446,0.399,0.288,0.37,0.35,0.409,1.05,1.19,1.2,0.807,1.36,1.8,1.25,1.02
Calu-6,0.728,0.823,0.8,0.867,–,–,–,–,–,–,–,–,0.826,0.902,–,0.962,1.05,0.984,0.998,1.03
201T,1.07,1.09,1.02,1.05,0.732,0.717,0.687,0.717,0.347,0.346,0.37,0.363,1.08,0.991,1.02,1,1.13,1.02,1.04,1.01
CAL-12T,0.72,0.828,0.551,0.578,0.329,0.359,0.353,0.386,0.544,0.52,0.379,0.513,0.925,0.823,0.669,0.808,0.849,0.811,0.932,1.01
HCC-78,0.343,0.34,0.362,0.337,0.725,0.725,0.849,0.782,0.477,0.454,0.505,0.465,0.565,0.607,0.544,0.467,0.572,0.571,0.582,0.643
LK-2,0.231,0.233,0.234,0.289,0.758,0.629,0.785,0.791,0.536,0.809,0.616,0.63,0.49,0.807,0.537,0.621,0.798,0.792,0.696,0.765
NCI-H522,–,–,–,–,0.675,0.915,0.848,0.77,0.866,0.984,0.962,1.11,–,–,–,–,–,–,–,–
NCI-H322M,0.792,0.839,0.877,0.854,0.498,0.575,0.542,0.503,0.434,0.42,0.519,0.466,0.907,0.889,0.817,0.928,0.911,0.971,0.891,0.975
COR-L 105,0.873,0.915,0.774,0.64,0.436,0.453,0.47,0.355,0.367,0.402,0.379,0.461,0.962,0.852,0.868,1.13,0.801,0.875,1.01,0.877
